What all share (type): functional
In one assay the test system is Pseudomonas aeruginosa. Put plainly: Antimicrobial activity against Pseudomonas aeruginosa ATCC 27853 assessed as growth inhibition measured after 8 hrs incubation by standard broth dilution assay.
The subject of a further assay is Klebsiella pneumoniae. Put plainly: Antimicrobial activity against Klebsiella pneumoniae ATCC 13883 assessed as growth inhibition measured after 8 hrs incubation by standard broth dilution assay.
A further assay concerns Staphylococcus aureus. Put plainly: Antimicrobial activity against methicillin-resistant Staphylococcus aureus ATCC 43300 assessed as growth inhibition measured after 8 hrs incubation by standard broth dilution assay.
The next assay concerns Streptococcus pneumoniae. Put plainly: Antimicrobial activity against Streptococcus pneumoniae ATCC 49619 assessed as growth inhibition measured after 8 hrs incubation by standard broth dilution assay.

≈ marks a conversion by molar mass, not a printed value. Positions of bridges follow the written chain, without caps; N, C: chain ends. Non-standard residues stand in square brackets, D forms with d. Residues, ends and D or L forms follow the SMILES beside them. R8 = C=CCCCCCC[C@@](C)(N)C(=O)O; S5 = C=CCCC[C@](C)(N)C(=O)O; Abu = CC[C@H](N)C(=O)O

Take `CC(=O)N[C@@H](CC(C)C)C(=O)N[C@@H](CCCCN)C(=O)N[C@@H](CCCNC(=N)N)C(=O)N[C@H](C(=O)N[C@@H](Cc1c[nH]c2ccccc12)C(=O)N[C@@H](CCCCN)C(=O)N[C@@H](CCCNC(=N)N)C(=O)N[C@@]1(C)CCC/C=C\CCC[C@@](C)(C(=O)N[C@@H](CCCCN)C(=O)N[C@@H](CCCNC(=N)N)C(=O)N[C@@H](Cc2ccc(O)cc2)C(=O)N[C@@H](Cc2c[nH]c3ccccc23)C(=O)N[C@@H](CCCNC(=N)N)C(=O)N[C@@H](CCC(N)=O)C(=O)N[C@@H](CC(C)C)C(=O)N[C@@H](CCCCN)C(=O)N[C@@H](CCCCN)C(=O)N2CCC[C@H]2C(=O)N[C@H](C(=O)N[C@@H](CCCNC(=N)N)C(N)=O)C(C)C)NC(=O)[C@H](CC(C)C)NC(=O)[C@H](CCCCN)NC(=O)[C@H](Cc2ccccc2)NC1=O)C(C)C` (Ac-LKRVWKR[S5]FKL[S5]KRYWRQLKKPVR-NH2; staple (Z) 8-12): the MIC with Pseudomonas aeruginosa was determined as 5 µg/mL (≈ 1.51 µM); in the assay with Klebsiella pneumoniae, 38 µg/mL (≈ 11.5 µM); with Staphylococcus aureus it was 2.5 µg/mL (≈ 0.756 µM); in the assay on Streptococcus pneumoniae, 37.7 µg/mL (≈ 11.4 µM).

In the case of `CC[C@@H]1NC(=O)[C@H](Cc2ccccc2)NC(=O)[C@H](C(C)C)NC(=O)[C@@](C)(NC(=O)[C@H](CCCCN)NC(=O)[C@H](Cc2c[nH]c3ccccc23)NC(=O)[C@@H](NC(=O)[C@H](CCCNC(=N)N)NC(=O)[C@H](CCCCN)NC(=O)[C@H](CC(C)C)NC(C)=O)C(C)C)CCC/C=C\CCC[C@@](C)(C(=O)N[C@@H](CC(C)C)C(=O)N[C@@H](CCCCN)C(=O)N[C@@H](CCCNC(=N)N)C(=O)N[C@@H](Cc2ccc(O)cc2)C(=O)N[C@@H](Cc2c[nH]c3ccccc23)C(=O)N[C@@H](CCCNC(=N)N)C(=O)N[C@@H](CCC(N)=O)C(=O)N[C@@H](CC(C)C)C(=O)N[C@@H](CCCCN)C(=O)N[C@@H](CCCCN)C(=O)N2CCC[C@H]2C(=O)N[C@H](C(=O)N[C@@H](CCCNC(=N)N)C(N)=O)C(C)C)NC1=O` (Ac-LKRVWK[S5]VF[Abu][S5]LKRYWRQLKKPVR-NH2; staple (Z) 7-11), the minimum inhibitory concentration (MIC) came out at 5 µg/mL (≈ 1.56 µM) in the assay on Pseudomonas aeruginosa, 4.9 µg/mL (≈ 1.53 µM) in the assay with Klebsiella pneumoniae, 2.5 µg/mL (≈ 0.78 µM) with Staphylococcus aureus and 19 µg/mL (≈ 5.93 µM) in the assay on Streptococcus pneumoniae.

For `CC(=O)N[C@@H](CC(C)C)C(=O)N[C@@H](CCCCN)C(=O)N[C@@H](CCCNC(=N)N)C(=O)N[C@H](C(=O)N[C@]1(C)CCCCCC/C=C\CCC[C@@](C)(C(=O)N[C@@H](CCCCN)C(=O)N[C@@H](CCCNC(=N)N)C(=O)N[C@@H](Cc2ccc(O)cc2)C(=O)N[C@@H](Cc2c[nH]c3ccccc23)C(=O)N[C@@H](CCCNC(=N)N)C(=O)N[C@@H](CCC(N)=O)C(=O)N[C@@H](CC(C)C)C(=O)N[C@@H](CCCCN)C(=O)N[C@@H](CCCCN)C(=O)N2CCC[C@H]2C(=O)N[C@H](C(=O)N[C@@H](CCCNC(=N)N)C(N)=O)C(C)C)NC(=O)[C@H](CC(C)C)NC(=O)[C@H](CCCCN)NC(=O)[C@H](Cc2ccccc2)NC(=O)[C@H](C(C)C)NC(=O)[C@H](CCCNC(=N)N)NC(=O)[C@H](CCCCN)NC1=O)C(C)C` (Ac-LKRV[R8]KRVFKL[S5]KRYWRQLKKPVR-NH2; staple (Z) 5-12), the MIC in the assay with Pseudomonas aeruginosa came out at 19.3 µg/mL (≈ 5.92 µM); in the assay with Klebsiella pneumoniae, 38 µg/mL (≈ 11.7 µM); in the assay on Staphylococcus aureus, 9.7 µg/mL (≈ 2.98 µM); in the assay with Streptococcus pneumoniae it was 9.6 µg/mL (≈ 2.94 µM).

As to `CC(=O)N[C@@H](CC(C)C)C(=O)N[C@@H](CCCCN)C(=O)N[C@@H](CCCNC(=N)N)C(=O)N[C@H](C(=O)N[C@@]1(C)CCC/C=C\CCC[C@@](C)(C(=O)N[C@@H](CCCCN)C(=O)N[C@@H](CC(C)C)C(=O)N[C@@H](CC(C)C)C(=O)N[C@@H](CCCCN)C(=O)N[C@@H](CCCNC(=N)N)C(=O)N[C@@H](Cc2ccc(O)cc2)C(=O)N[C@@H](Cc2c[nH]c3ccccc23)C(=O)N[C@@H](CCCNC(=N)N)C(=O)N[C@@H](CCC(N)=O)C(=O)N[C@@H](CC(C)C)C(=O)N[C@@H](CCCCN)C(=O)N[C@@H](CCCCN)C(=O)N2CCC[C@H]2C(=O)N[C@H](C(=O)N[C@@H](CCCNC(=N)N)C(N)=O)C(C)C)NC(=O)[C@H](C(C)C)NC(=O)[C@H](CCCNC(=N)N)NC(=O)[C@H](CCCCN)NC1=O)C(C)C` (Ac-LKRV[S5]KRV[S5]KLLKRYWRQLKKPVR-NH2; staple (Z) 5-9), the minimal inhibitory concentration (MIC) was 2.6 µg/mL (≈ 0.817 µM) with Pseudomonas aeruginosa, 38 µg/mL (≈ 11.9 µM) with Klebsiella pneumoniae, 2.5 µg/mL (≈ 0.785 µM) in the assay on Staphylococcus aureus and 37.7 µg/mL (≈ 11.8 µM) in the assay on Streptococcus pneumoniae.

For the molecule `CC(=O)N[C@@H](CC(C)C)C(=O)N[C@@H](CCCCN)C(=O)N[C@@H](CCCNC(=N)N)C(=O)N[C@]1(C)CCCCCC/C=C\CCC[C@@](C)(C(=O)N[C@@H](CC(C)C)C(=O)N[C@@H](CCCCN)C(=O)N[C@@H](CCCNC(=N)N)C(=O)N[C@@H](Cc2ccc(O)cc2)C(=O)N[C@@H](Cc2c[nH]c3ccccc23)C(=O)N[C@@H](CCCNC(=N)N)C(=O)N[C@@H](CCC(N)=O)C(=O)N[C@@H](CC(C)C)C(=O)N[C@@H](CCCCN)C(=O)N[C@@H](CCCCN)C(=O)N2CCC[C@H]2C(=O)N[C@H](C(=O)N[C@@H](CCCNC(=N)N)C(N)=O)C(C)C)NC(=O)[C@H](CCCCN)NC(=O)[C@H](Cc2ccccc2)NC(=O)[C@H](C(C)C)NC(=O)[C@H](CCCNC(=N)N)NC(=O)[C@H](CCCCN)NC(=O)[C@H](Cc2c[nH]c3ccccc23)NC1=O` (Ac-LKR[R8]WKRVFK[S5]LKRYWRQLKKPVR-NH2; staple (Z) 4-11), the MIC stood at 5 µg/mL (≈ 1.49 µM) in the assay on Pseudomonas aeruginosa, 38 µg/mL (≈ 11.4 µM) in the assay on Klebsiella pneumoniae, 4.9 µg/mL (≈ 1.46 µM) in the assay on Staphylococcus aureus and 37.7 µg/mL (≈ 11.3 µM) in the assay with Streptococcus pneumoniae.

In the case of `CC(=O)N[C@@H](CC(C)C)C(=O)N[C@@H](CCCCN)C(=O)N[C@@H](CCCNC(=N)N)C(=O)N[C@@]1(C)CCC/C=C\CCC[C@@](C)(C(=O)N[C@@H](Cc2ccccc2)C(=O)N[C@@H](CCCCN)C(=O)N[C@@H](CC(C)C)C(=O)N[C@@H](CC(C)C)C(=O)N[C@@H](CCCCN)C(=O)N[C@@H](CCCNC(=N)N)C(=O)N[C@@H](Cc2ccc(O)cc2)C(=O)N[C@@H](Cc2c[nH]c3ccccc23)C(=O)N[C@@H](CCCNC(=N)N)C(=O)N[C@@H](CCC(N)=O)C(=O)N[C@@H](CC(C)C)C(=O)N[C@@H](CCCCN)C(=O)N[C@@H](CCCCN)C(=O)N2CCC[C@H]2C(=O)N[C@H](C(=O)N[C@@H](CCCNC(=N)N)C(N)=O)C(C)C)NC(=O)[C@H](CCCNC(=N)N)NC(=O)[C@H](CCCCN)NC(=O)[C@H](Cc2c[nH]c3ccccc23)NC1=O` (Ac-LKR[S5]WKR[S5]FKLLKRYWRQLKKPVR-NH2; staple (Z) 4-8), the MIC in the assay on Pseudomonas aeruginosa was determined as 5 µg/mL (≈ 1.51 µM); in the assay with Klebsiella pneumoniae it was 38 µg/mL (≈ 11.4 µM); in the assay on Staphylococcus aureus, 2.5 µg/mL (≈ 0.753 µM); with Streptococcus pneumoniae, 37.7 µg/mL (≈ 11.4 µM).

In the case of `CC(=O)N[C@@H](CC(C)C)C(=O)N[C@]1(C)CCCCCC/C=C\CCC[C@@](C)(C(=O)N[C@@H](CCCCN)C(=O)N[C@@H](CC(C)C)C(=O)N[C@@H](CC(C)C)C(=O)N[C@@H](CCCCN)C(=O)N[C@@H](CCCNC(=N)N)C(=O)N[C@@H](Cc2ccc(O)cc2)C(=O)N[C@@H](Cc2c[nH]c3ccccc23)C(=O)N[C@@H](CCCNC(=N)N)C(=O)N[C@@H](CCC(N)=O)C(=O)N[C@@H](CC(C)C)C(=O)N[C@@H](CCCCN)C(=O)N[C@@H](CCCCN)C(=O)N2CCC[C@H]2C(=O)N[C@H](C(=O)N[C@@H](CCCNC(=N)N)C(N)=O)C(C)C)NC(=O)[C@H](C(C)C)NC(=O)[C@H](CCCNC(=N)N)NC(=O)[C@H](CCCCN)NC(=O)[C@H](Cc2c[nH]c3ccccc23)NC(=O)[C@H](C(C)C)NC(=O)[C@H](CCCNC(=N)N)NC1=O` (Ac-L[R8]RVWKRV[S5]KLLKRYWRQLKKPVR-NH2; staple (Z) 2-9), the MIC in the assay with Pseudomonas aeruginosa is 9.8 µg/mL (≈ 2.98 µM); in the assay on Klebsiella pneumoniae, 38 µg/mL (≈ 11.6 µM); with Staphylococcus aureus, 9.7 µg/mL (≈ 2.95 µM); in the assay with Streptococcus pneumoniae it was 37.7 µg/mL (≈ 11.5 µM).

With `CC(=O)N[C@]1(C)CCCCCC/C=C\CCC[C@@](C)(C(=O)N[C@@H](Cc2ccccc2)C(=O)N[C@@H](CCCCN)C(=O)N[C@@H](CC(C)C)C(=O)N[C@@H](CC(C)C)C(=O)N[C@@H](CCCCN)C(=O)N[C@@H](CCCNC(=N)N)C(=O)N[C@@H](Cc2ccc(O)cc2)C(=O)N[C@@H](Cc2c[nH]c3ccccc23)C(=O)N[C@@H](CCCNC(=N)N)C(=O)N[C@@H](CCC(N)=O)C(=O)N[C@@H](CC(C)C)C(=O)N[C@@H](CCCCN)C(=O)N[C@@H](CCCCN)C(=O)N2CCC[C@H]2C(=O)N[C@H](C(=O)N[C@@H](CCCNC(=N)N)C(N)=O)C(C)C)NC(=O)[C@H](CCCNC(=N)N)NC(=O)[C@H](CCCCN)NC(=O)[C@H](Cc2c[nH]c3ccccc23)NC(=O)[C@H](C(C)C)NC(=O)[C@H](CCCNC(=N)N)NC(=O)[C@H](CCCCN)NC1=O` (Ac-[R8]KRVWKR[S5]FKLLKRYWRQLKKPVR-NH2; staple (Z) 1-8), the MIC is 9.8 µg/mL (≈ 2.93 µM) in the assay with Pseudomonas aeruginosa, 38 µg/mL (≈ 11.4 µM) with Klebsiella pneumoniae, 4.9 µg/mL (≈ 1.46 µM) in the assay on Staphylococcus aureus and 9.6 µg/mL (≈ 2.87 µM) in the assay on Streptococcus pneumoniae.

For `CC(=O)N[C@@]1(C)CCC/C=C\CCC[C@@](C)(C(=O)N[C@@H](CCCCN)C(=O)N[C@@H](CCCNC(=N)N)C(=O)N[C@H](C(=O)N[C@@H](Cc2ccccc2)C(=O)N[C@@H](CCCCN)C(=O)N[C@@H](CC(C)C)C(=O)N[C@@H](CC(C)C)C(=O)N[C@@H](CCCCN)C(=O)N[C@@H](CCCNC(=N)N)C(=O)N[C@@H](Cc2ccc(O)cc2)C(=O)N[C@@H](Cc2c[nH]c3ccccc23)C(=O)N[C@@H](CCCNC(=N)N)C(=O)N[C@@H](CCC(N)=O)C(=O)N[C@@H](CC(C)C)C(=O)N[C@@H](CCCCN)C(=O)N[C@@H](CCCCN)C(=O)N2CCC[C@H]2C(=O)N[C@H](C(=O)N[C@@H](CCCNC(=N)N)C(N)=O)C(C)C)C(C)C)NC(=O)[C@H](C(C)C)NC(=O)[C@H](CCCNC(=N)N)NC(=O)[C@H](CCCCN)NC1=O` (Ac-[S5]KRV[S5]KRVFKLLKRYWRQLKKPVR-NH2; staple (Z) 1-5), the MIC with Pseudomonas aeruginosa was determined as 2.6 µg/mL (≈ 0.808 µM); in the assay with Klebsiella pneumoniae, 38 µg/mL (≈ 11.8 µM); in the assay on Staphylococcus aureus it was 2.5 µg/mL (≈ 0.777 µM); in the assay with Streptococcus pneumoniae, 37.7 µg/mL (≈ 11.7 µM).

The values above are taken from ChEMBL document CHEMBL6153110, “Peptide Double-Stapling and Arginine N-Glycosylation Triggered the Development of Therapeutic Antimicrobial Peptides Capable of Killing Drug-Resistant Bacteria in Mice” (J Med Chem, 2025).
